{"source": "paper PMC5218480", "about": "(PLoS ONE, 2017)", "system": "MV-4-11 cells", "assay": "Gene expression microarray analysis (Affymetrix PrimeView) and GSEA", "type": "cell-based, human", "parameters": "RFU PODN (11730768_x_at) / Fold change /veh PODN (11730768_x_at) / RFU LINC00158 (11744669_a_at) / Fold change /veh LINC00158 (11744669_a_at) / RFU DUSP10 (11751237_a_at) / Fold change /veh DUSP10 (11751237_a_at) / RFU ID3 (11757404_x_at) / Fold change /veh ID3 (11757404_x_at) / RFU PLEKHG5 (11737974_s_at) / Fold change /veh PLEKHG5 (11737974_s_at) / RFU LRRC4B (11730491_at) / Fold change /veh LRRC4B (11730491_at) / RFU GIMAP4 (11747438_a_at) / Fold change /veh GIMAP4 (11747438_a_at) / RFU KRT8 (11758183_x_at) / Fold change /veh KRT8 (11758183_x_at) / RFU CNN1 (11734310_a_at) / Fold change /veh CNN1 (11734310_a_at) / RFU VPS37D (11726825_at) / Fold change /veh VPS37D (11726825_at) / RFU C10orf10 (11716522_x_at) / Fold change /veh C10orf10 (11716522_x_at) / RFU KIR2DL2 /// KIR2DL4 /// KIR2DL5A /// KIR2DL5B /// KIR2DS1 /// KIR2DS2 /// KIR2DS3 /// KIR2DS4 /// KIR3DL3 /// KIR3DL3 /// KIR3DS1 (11738374_at) / Fold change /veh KIR2DL2 /// KIR2DL4 /// KIR2DL5A /// KIR2DL5B /// KIR2DS1 /// KIR2DS2 /// KIR2DS3 /// KIR2DS4 /// KIR3DL3 /// KIR3DL3 /// KIR3DS1 (11738374_at) / RFU C1QL1 (11718748_at) / Fold change /veh C1QL1 (11718748_at) / RFU TMPRSS4 (11747572_a_at) / Fold change /veh TMPRSS4 (11747572_a_at) / RFU HAMP (11756126_x_at) / Fold change /veh HAMP (11756126_x_at) / RFU RNFT2 (11725882_a_at) / Fold change /veh RNFT2 (11725882_a_at) / RFU NR4A2 (11747474_a_at) / Fold change /veh NR4A2 (11747474_a_at) / RFU ABCC12 (11746883_a_at) / Fold change /veh ABCC12 (11746883_a_at) / RFU TMEM136 (11760407_x_at) / Fold change /veh TMEM136 (11760407_x_at) / RFU CLDN22 /// WWC2 (11732394_at) / Fold change /veh CLDN22 /// WWC2 (11732394_at) / RFU HLA-DPB1 (11760878_x_at) / Fold change /veh HLA-DPB1 (11760878_x_at) / RFU SPINT1 (11716480_a_at) / Fold change /veh SPINT1 (11716480_a_at) / RFU GAP43 (11754022_s_at) / Fold change /veh GAP43 (11754022_s_at) / RFU A4GNT (11735810_at) / Fold change /veh A4GNT (11735810_at) / RFU PRB3 (11715151_x_at) / Fold change /veh PRB3 (11715151_x_at) / RFU TUBB4B (11761932_at) / Fold change /veh TUBB4B (11761932_at) / RFU CAPN14 (11732068_a_at) / Fold change /veh CAPN14 (11732068_a_at) / RFU TMCC2 (11721928_a_at) / Fold change /veh TMCC2 (11721928_a_at) / RFU IRGQ (11745062_a_at) / Fold change /veh IRGQ (11745062_a_at) / RFU FAM174B (11720279_a_at) / Fold change /veh FAM174B (11720279_a_at) / RFU TMPRSS4 (11748680_a_at) / Fold change /veh TMPRSS4 (11748680_a_at) / RFU FAM212B (11763350_a_at) / Fold change /veh FAM212B (11763350_a_at) / RFU PLEKHG5 (11743358_a_at) / Fold change /veh PLEKHG5 (11743358_a_at) / RFU ZSCAN30 (11745921_a_at) / Fold change /veh ZSCAN30 (11745921_a_at) / RFU CMKLR1 (11741424_a_at) / Fold change /veh CMKLR1 (11741424_a_at) / RFU LOC101060620 /// MAPK8IP1 (11723275_at) / Fold change /veh LOC101060620 /// MAPK8IP1 (11723275_at) / RFU SPTSSB (11747773_x_at) / Fold change /veh SPTSSB (11747773_x_at) / RFU PRSS12 (11739890_at) / Fold change /veh PRSS12 (11739890_at) / RFU BIN1 (11741810_x_at) / Fold change /veh BIN1 (11741810_x_at) / RFU WNT11 (11732464_a_at) / Fold change /veh WNT11 (11732464_a_at) / RFU C10orf10 (11716521_a_at) / Fold change /veh C10orf10 (11716521_a_at) / RFU C5orf56 (11738089_at) / Fold change /veh C5orf56 (11738089_at) / RFU CYB561 (11721691_x_at) / Fold change /veh CYB561 (11721691_x_at) / RFU ANKRD19P (11752326_a_at) / Fold change /veh ANKRD19P (11752326_a_at) / RFU OR2T12 /// OR2T33 /// OR2T8 (11738714_s_at) / Fold change /veh OR2T12 /// OR2T33 /// OR2T8 (11738714_s_at) / RFU VCAN (11748164_a_at) / Fold change /veh VCAN (11748164_a_at) / RFU JSRP1 (11732532_at) / Fold change /veh JSRP1 (11732532_at) / RFU KRTAP10-11 (11738290_x_at) / Fold change /veh KRTAP10-11 (11738290_x_at) / RFU MYO3A (11730013_a_at) / Fold change /veh MYO3A (11730013_a_at) / RFU EBF3 (11725865_a_at) / Fold change /veh EBF3 (11725865_a_at) / RFU CAMK2N1 (11719241_x_at) / Fold change /veh CAMK2N1 (11719241_x_at) / RFU C5orf56 (11738088_a_at) / Fold change /veh C5orf56 (11738088_a_at) / RFU OLFML3 (11715873_a_at) / Fold change /veh OLFML3 (11715873_a_at) / RFU LOC100653217 /// NTM (11731650_a_at) / Fold change /veh LOC100653217 /// NTM (11731650_a_at) / RFU MAPK11 (11762145_a_at) / Fold change /veh MAPK11 (11762145_a_at) / RFU FIZ1 (11724087_x_at) / Fold change /veh FIZ1 (11724087_x_at) / RFU OASL (11726364_x_at) / Fold change /veh OASL (11726364_x_at) / RFU SOX15 (11748057_x_at) / Fold change /veh SOX15 (11748057_x_at) / RFU CD79A (11719716_a_at) / Fold change /veh CD79A (11719716_a_at) / RFU HIST1H1D (11736915_at) / Fold change /veh HIST1H1D (11736915_at) / RFU CASKIN2 (11723855_a_at) / Fold change /veh CASKIN2 (11723855_a_at) / RFU LOC730098 (11760151_x_at) / Fold change /veh LOC730098 (11760151_x_at) / RFU OR4N2 (11742367_at) / Fold change /veh OR4N2 (11742367_at) / RFU PRRT2 (11749266_a_at) / Fold change /veh PRRT2 (11749266_a_at) / RFU SNX32 (11753110_a_at) / Fold change /veh SNX32 (11753110_a_at) / RFU CDHR5 (11726645_a_at) / Fold change /veh CDHR5 (11726645_a_at) / RFU RCAN1 (11760418_a_at) / Fold change /veh RCAN1 (11760418_a_at) / RFU FAM167A (11723789_a_at) / Fold change /veh FAM167A (11723789_a_at) / RFU FAM26E (11764081_at) / Fold change /veh FAM26E (11764081_at) / RFU ISYNA1 (11749810_s_at) / Fold change /veh ISYNA1 (11749810_s_at) / RFU ACY1 (11761880_at) / Fold change /veh ACY1 (11761880_at) / RFU 11764098_at / Fold change /veh 11764098_at / RFU SAMD14 (11745864_x_at) / Fold change /veh SAMD14 (11745864_x_at) / RFU NPB (11741838_a_at) / Fold change /veh NPB (11741838_a_at) / RFU TMPRSS6 (11731388_a_at) / Fold change /veh TMPRSS6 (11731388_a_at) / RFU KRTAP10-2 (11738614_at) / Fold change /veh KRTAP10-2 (11738614_at) / RFU ARHGAP8 /// PRR5-ARHGAP8 (11727945_x_at) / Fold change /veh ARHGAP8 /// PRR5-ARHGAP8 (11727945_x_at) / RFU KRTAP5-7 /// NADSYN1 (11734609_at) / Fold change /veh KRTAP5-7 /// NADSYN1 (11734609_at) / RFU RASL12 (11751679_a_at) / Fold change /veh RASL12 (11751679_a_at) / RFU CDKN2B (11736163_a_at) / Fold change /veh CDKN2B (11736163_a_at) / RFU PRF1 (11729649_at) / Fold change /veh PRF1 (11729649_at) / RFU, ZNF638 /// ZNF638-IT1 / Fold change vs veh, ZNF638 /// ZNF638-IT1 / RFU, PANK3 / Fold change vs veh, PANK3 / RFU, SH3YL1 / Fold change vs veh, SH3YL1 / RFU, ZEB2 / Fold change vs veh, ZEB2 / RFU, NRIP1 / Fold change vs veh, NRIP1 / RFU, PTTG1IP / Fold change vs veh, PTTG1IP / RFU, CAPN2 / Fold change vs veh, CAPN2 / RFU, MED14 / Fold change vs veh, MED14 / RFU, SNORA58 / Fold change vs veh, SNORA58 / RFU, C1orf63 / Fold change vs veh, C1orf63 / RFU, LRRFIP1 / Fold change vs veh, LRRFIP1 / RFU, NDUFAF7 / Fold change vs veh, NDUFAF7 / RFU, SLC12A2 / Fold change vs veh, SLC12A2 / RFU, IBTK / Fold change vs veh, IBTK / RFU, ESF1 / Fold change vs veh, ESF1 / Fold change vs veh, TMEM50B / RFU, TAOK1 / Fold change vs veh, TAOK1 / RFU, ACBD3 / Fold change vs veh, ACBD3 / RFU, TMA16 / Fold change vs veh, TMA16 / RFU, RWDD3 / Fold change vs veh, RWDD3 / RFU, BCAT1 / Fold change vs veh, BCAT1 / RFU, EDEM3 / Fold change vs veh, EDEM3 / RFU, TMEM33 / Fold change vs veh, TMEM33 / RFU, WDR75 / Fold change vs veh, WDR75 / RFU, AHCTF1 / Fold change vs veh, AHCTF1 / RFU, TFRC / Fold change vs veh, TFRC / RFU, ZDHHC17 / Fold change vs veh, ZDHHC17 / RFU, NOM1 / Fold change vs veh, NOM1 / RFU, ARL8B / Fold change vs veh, ARL8B / RFU, ZBTB11 / Fold change vs veh, ZBTB11 / RFU, TAMM41 / Fold change vs veh, TAMM41 / RFU, KIAA1704 /// LOC100996395 / Fold change vs veh, KIAA1704 /// LOC100996395 / RFU, ING1 / Fold change vs veh, ING1 / RFU, TRMT61B / Fold change vs veh, TRMT61B / RFU, FUBP3 / Fold change vs veh, FUBP3 / RFU, TP53 / Fold change vs veh, TP53 / RFU, TNKS2 / Fold change vs veh, TNKS2 / RFU, ZFP14 / Fold change vs veh, ZFP14 / RFU, ACTR2 / Fold change vs veh, ACTR2 / RFU, PPP3R1 / Fold change vs veh, PPP3R1 / RFU, PIK3R1 / Fold change vs veh, PIK3R1 / RFU, HNRNPA1 / Fold change vs veh, HNRNPA1 / RFU, RNF170 / Fold change vs veh, RNF170 / RFU, ZNF28 / Fold change vs veh, ZNF28 / RFU, RNGTT / Fold change vs veh, RNGTT / RFU, OGT / Fold change vs veh, OGT / RFU, BRD1 / Fold change vs veh, BRD1 / RFU, MARS / Fold change vs veh, MARS / RFU, ZNF655 / Fold change vs veh, ZNF655 / RFU, FAHD1 / Fold change vs veh, FAHD1 / RFU, BDP1 / Fold change vs veh, BDP1 / RFU, LRRCC1 / Fold change vs veh, LRRCC1 / RFU, ARID1A / Fold change vs veh, ARID1A / RFU, ZNF146 / Fold change vs veh, ZNF146 / RFU, ZNF330 / Fold change vs veh, ZNF330 / RFU, GPN3 / Fold change vs veh, GPN3 / RFU, C9orf123 / Fold change vs veh, C9orf123 / RFU, N4BP2L2 / Fold change vs veh, N4BP2L2 / RFU, ARFIP1 / Fold change vs veh, ARFIP1 / RFU, FAM179B / Fold change vs veh, FAM179B / RFU, BCL10 / Fold change vs veh, BCL10 / RFU, UHRF1BP1L / Fold change vs veh, UHRF1BP1L / RFU, BET1 / Fold change vs veh, BET1 / RFU, CNOT2 / Fold change vs veh, CNOT2 / RFU, ZNF268 / Fold change vs veh, ZNF268 / Fold change vs veh, ZNF507 / RFU, DGCR2 / Fold change vs veh, DGCR2 / RFU, WDSUB1 / Fold change vs veh, WDSUB1 / Fold change vs veh, HSP90B1 /// MIR3652 / RFU, ADSS / Fold change vs veh, ADSS / RFU, GK / Fold change vs veh, GK / RFU, ZNF148 / Fold change vs veh, ZNF148 / RFU, TAF9 / Fold change vs veh, TAF9 / RFU, SLC1A5 / Fold change vs veh, SLC1A5 / RFU, SLMO2 / Fold change vs veh, SLMO2 / RFU, ABCC4 / Fold change vs veh, ABCC4 / RFU, LOC101060439 /// RAP1B / Fold change vs veh, LOC101060439 /// RAP1B / RFU, RFX7 / Fold change vs veh, RFX7 / RFU, GTPBP10 / Fold change vs veh, GTPBP10 / RFU, CNEP1R1 / Fold change vs veh, CNEP1R1 / RFU, BIVM-ERCC5 /// ERCC5 / Fold change vs veh, BIVM-ERCC5 /// ERCC5 / RFU, ILF3 / Fold change vs veh, ILF3 / RFU 11762660_at / Fold change /veh 11762660_at / RFU VCAN (11757783_s_at) / Fold change /veh VCAN (11757783_s_at) / RFU DDX43 (11728927_at) / Fold change /veh DDX43 (11728927_at) / RFU KRT8 (11758188_x_at) / Fold change /veh KRT8 (11758188_x_at) / RFU NKD1 (11759106_at) / Fold change /veh NKD1 (11759106_at) / RFU SRD5A1 (11742802_a_at) / Fold change /veh SRD5A1 (11742802_a_at) / RFU TPSAB1 /// TPSB2 (11721975_s_at) / Fold change /veh TPSAB1 /// TPSB2 (11721975_s_at) / RFU GSTM3 (11746129_a_at) / Fold change /veh GSTM3 (11746129_a_at) / RFU IL23R (11737362_x_at) / Fold change /veh IL23R (11737362_x_at) / RFU TMEM51 (11727254_a_at) / Fold change /veh TMEM51 (11727254_a_at) / RFU PIWIL2 (11732686_x_at) / Fold change /veh PIWIL2 (11732686_x_at) / RFU ORM1 (11744905_x_at) / Fold change /veh ORM1 (11744905_x_at) / RFU CCDC152 (11743942_at) / Fold change /veh CCDC152 (11743942_at) / RFU ECM1 (11717891_a_at) / Fold change /veh ECM1 (11717891_a_at) / RFU IL23R (11748794_a_at) / Fold change /veh IL23R (11748794_a_at) / RFU TNFAIP8L3 (11732012_x_at) / Fold change /veh TNFAIP8L3 (11732012_x_at) / RFU MBOAT4 (11741988_at) / Fold change /veh MBOAT4 (11741988_at) / RFU 11764193_at / Fold change /veh 11764193_at / RFU TMEM53 (11763286_at) / Fold change /veh TMEM53 (11763286_at) / RFU MAGEB2 (11727129_at) / Fold change /veh MAGEB2 (11727129_at) / RFU TMEM200A (11744735_a_at) / Fold change /veh TMEM200A (11744735_a_at) / RFU CCDC152 (11751479_a_at) / Fold change /veh CCDC152 (11751479_a_at) / RFU FAM211A (11726209_a_at) / Fold change /veh FAM211A (11726209_a_at) / RFU RGS16 (11746705_a_at) / Fold change /veh RGS16 (11746705_a_at) / RFU VCAN (11755009_s_at) / Fold change /veh VCAN (11755009_s_at) / RFU RHOB (11743442_s_at) / Fold change /veh RHOB (11743442_s_at) / RFU RGS16 (11720943_a_at) / Fold change /veh RGS16 (11720943_a_at) / RFU RGS16 (11720944_at) / Fold change /veh RGS16 (11720944_at) / RFU, VPS4B / Fold change vs veh, VPS4B / RFU, CREB1 / Fold change vs veh, CREB1 / RFU, DNAJC13 / Fold change vs veh, DNAJC13 / RFU, GNAQ / Fold change vs veh, GNAQ / RFU, CDK5R1 / Fold change vs veh, CDK5R1 / RFU, ZRANB3 / Fold change vs veh, ZRANB3 / RFU, CUL4A / Fold change vs veh, CUL4A / RFU, CCNY / Fold change vs veh, CCNY / RFU, UFL1 / Fold change vs veh, UFL1 / RFU, COG3 / Fold change vs veh, COG3 / RFU, DIAPH2 / Fold change vs veh, DIAPH2 / RFU, SKA2 / Fold change vs veh, SKA2 / RFU, AFF3 / Fold change vs veh, AFF3 / RFU, LMF1 / Fold change vs veh, LMF1 / RFU, IPO11 / Fold change vs veh, IPO11 / RFU, DFFB / Fold change vs veh, DFFB / RFU, FOXP1 / Fold change vs veh, FOXP1 / RFU, CARD8 / Fold change vs veh, CARD8 / RFU, STRN3 / Fold change vs veh, STRN3 / RFU, ADK / Fold change vs veh, ADK / RFU, RASSF2 / Fold change vs veh, RASSF2 / RFU, WIPF1 / Fold change vs veh, WIPF1 / RFU, LARP1B / Fold change vs veh, LARP1B / RFU, RASA1 / Fold change vs veh, RASA1 / RFU, RB1 / Fold change vs veh, RB1 / RFU, PPFIA1 / Fold change vs veh, PPFIA1 / RFU, MAT2A / Fold change vs veh, MAT2A / RFU, CCT5 / Fold change vs veh, CCT5 / RFU, WDR92 / Fold change vs veh, WDR92 / RFU, CUX1 / Fold change vs veh, CUX1 / RFU, TTC7A / Fold change vs veh, TTC7A / RFU, TMEM135 / Fold change vs veh, TMEM135 / RFU, DEPTOR / Fold change vs veh, DEPTOR / RFU, CPM / Fold change vs veh, CPM / RFU, DNAJB6 / Fold change vs veh, DNAJB6 / RFU, CACNA2D3 / Fold change vs veh, CACNA2D3 / RFU, DTX4 / Fold change vs veh, DTX4 / RFU, TFCP2 / Fold change vs veh, TFCP2 / RFU, GMCL1 /// GMCL1P1 / Fold change vs veh, GMCL1 /// GMCL1P1 / RFU, AEBP2 / Fold change vs veh, AEBP2 / RFU, SNHG1 /// SNORD22 /// SNORD25 /// SNORD26 /// SNORD27 /// SNORD28 /// SNORD29 /// SNORD31 / Fold change vs veh, SNHG1 /// SNORD22 /// SNORD25 /// SNORD26 /// SNORD27 /// SNORD28 /// SNORD29 /// SNORD31 / Fold change (Aza/veh), C12orf56 (ProbeSet 11735607_a_at) / Fold change (ACY-1035/veh), C12orf56 (ProbeSet 11735607_a_at) / Fold change (Aza/veh), FGFR1OP (ProbeSet 11751329_s_at) / Fold change (ACY-1035/veh), FGFR1OP (ProbeSet 11751329_s_at) / Fold change (Aza/veh), VPS36 (ProbeSet 11739960_a_at) / Fold change (ACY-1035/veh), VPS36 (ProbeSet 11739960_a_at) / RFU SYPL1 (11715823_x_at) / Fold change /veh SYPL1 (11715823_x_at) / RFU IGFBP7 (11715501_s_at) / Fold change /veh IGFBP7 (11715501_s_at) / RFU REEP3 (11722064_at) / Fold change /veh REEP3 (11722064_at) / RFU IGLL1 (11728026_x_at) / Fold change /veh IGLL1 (11728026_x_at): dose or concentration left out as unconfirmed", "conditions": "ProbeSet 11725902_s_at; LIST D"}
{"smiles": "Nc1ccc(-c2cccs2)cc1NC(=O)c1ccc2c(c1)cc(C1CC1)n2CCN1CCOCC1", "note": "[ACY-1035]", "values": [{"measurement": "Fold change vs veh, TMEM135", "value": 0.99}]}
